The test system of series [1] is S. aureus (ATCC #29213) cells. Kind of series: Membrane depolarization assay (DiOC2(3), flow cytometry). The note with it: positive control, 10 μL of 500 μM in 1 mL. It counts as cell-based. The procedure: S. aureus (ATCC #29213) cells were grown to log phase (14 h) in Mueller Hinton Broth cation-adjusted (MHB50) and were diluted to 0.07 OD600 with media. One mL aliquots were transferred to 1.5 mL centrifuge tubes and treated with the following in triplicate: 10 μL DMSO (control), 10 μL of 600 μg/mL ecteinamycin, 10 μL of 3.2 mg/mL ecteinamycin (1), 10 μL of 500 μM carbonyl cyanide m-chlorophenythydrazone (CCCP), and 10 μL of 3.2 mg/mL rifampicin. Additionally, each tube received 10 μL of 3 mM DiOC2(3) (3,3′-diethyloxacarbocyanine iodide). The tubes were shaken for 15 minutes at room temperature. The cells were then analyzed with a FACSCalibur (BD Biosciences) flow cytometer and CellQuestPro software (BD Biosciences). Collected data represent the geometric means of fluorescence of 40,000 gated events.
Flow cytometry was used to determine if ecteinamycin, like other polyether ionophore antibiotics, depolarizes cell membranes. 3,3′-diethyloxacarbocyanine iodide (“DiOC2(3)”) fluoresces green in bacterial cells but shifts to red when the cell membrane is depolarized. Therefore, the ratio of red to green fluorescence is indicative of the membrane potential. S. aureus ATCC […] cells were treated with ecteinamycin at concentrations of 6 and 32 μg/mL.
All cells except the DMSO negative control were treated with DiOC2(3) and analyzed by flow cytometry. […]

In series [2] the test system is C. difficile. The note with it: reported; cited from earlier work.
Series [3] concerns MSSA (ATCC #29213). Kind of series: MIC, dilution antimicrobial susceptibility test. It counts as cell-based, Methicillin-sensitive Staphylococcus aureus. As to conditions: Staphylococcus aureus, 18 h. Here is the method:
(§1) Ecteinamycin was tested for antibacterial activity against C. difficile (ATCC BAA-1870), MRSA (ATCC #33591), MSSA (ATCC #29213), E. coli (ATCC #25922), P. aeruginosa (ATCC #27853), and VRE (ATCC), and MICs were determined using a dilution antimicrobial susceptibility test for aerobic (MRSA, MSSA, E. coli, P. aeruginosa, and VRE) and anaerobic (C. difficile) bacteria. Ecteinamycin was dissolved in DMSO, serially diluted to 10 concentrations (0.0313-32 μg/mL), and tested in a 96-well plate. […] Ecteinamycin and vancomycin were tested in triplicate. Six untreated media controls were included on each plate. For MRSA, MSSA, E. coli, and P. aeruginosa, the plates were incubated at 33° C. for 18 h. For C. difficile, the plate was incubated at 36° C. for 48 h anaerobically and then read visually using a mirror apparatus. All manipulations to the plate were done inside the anaerobe chamber. The MIC was determined as the lowest concentration that inhibited visible growth.

In series [4] the test system is MRSA (ATCC #33591). Kind of series: MIC, dilution antimicrobial susceptibility test. Format: cell-based, Methicillin-resistant Staphylococcus aureus. As to conditions: Staphylococcus aureus, 18 h. The procedure:
as §1

The conditions of series [5]: in vivo; cited from earlier work.

Converted amounts (≈) assume the structure as drawn.

Consider `N#CC(C#N)=NNc1cccc(Cl)c1` [CCCP, carbonyl cyanide m-chlorophenylhydrazone, reference compound], for which the “membrane depolarization (ratio of red to green fluorescence)” value in series [1] is given as “membrane depolarization to a greater extent than ecteinamycin”.
With `CO[C@@H]1C[C@@H](C[C@H]2CC[C@H](C)[C@H]([C@@H](C)C(=O)O)O2)O[C@]2(O[C@](C)([C@H]3CC[C@@](C)([C@@H]4O[C@@H]([C@H]5O[C@@](O)(CO)[C@H](C)C[C@@H]5C)C[C@@H]4C)O3)C[C@H]2C)[C@@H]1C` [Nigericin], the MIC in series [2] is 0.0025 µg/mL (≈ 0.00345 µM).
On to `CN[C@H](CC(C)C)C(=O)N[C@H]1C(=O)N[C@@H](CC(N)=O)C(=O)N[C@H]2C(=O)N[C@H]3C(=O)N[C@H](C(=O)N[C@H](C(=O)O)c4cc(O)cc(O)c4-c4cc3ccc4O)[C@H](O)c3ccc(c(Cl)c3)Oc3cc2cc(c3O[C@@H]2O[C@H](CO)[C@@H](O)[C@H](O)[C@H]2O[C@H]2C[C@](C)(N)[C@H](O)[C@H](C)O2)Oc2ccc(cc2Cl)[C@H]1O` [Vancomycin, reference compound], for which the minimum inhibitory concentration (MIC) in series [3] and in series [4] was 1 µg/mL (≈ 0.69 µM) throughout.
Regarding `CC[C@@]1([C@@H]2O[C@@H]([C@H]3O[C@@](O)(CO)[C@H](C)C[C@@H]3C)C[C@@H]2C)CC[C@H]([C@]2(C)CC[C@]3(C[C@H](O)[C@@H](C)[C@@H]([C@@H](C)[C@@H](OC)[C@H](C)C(=O)O)O3)O2)O1` [monensin], the MIC in series [2] is 0.5 µg/mL (≈ 0.745 µM). Besides, the oral bioavailability in series [5] is listed as 30%.

The record behind these values is patent publication US10660874B2, “Ecteinamycin, compositions and uses thereof” (Wisconsin Alumni Research Foundation, priority 2014, dated 2020).
